Data published in patent US11857550B2, “Benzathine analogs” (University of Pittsburgh—Of the Commonwealth System of …, priority 2012, dated 2024).

System: C57BL6 mice
Test: DSS induced (acute) colitis
Assay type: in vivo
Conditions: 200 ug IP daily, 3.5% DSS up to five days
Protocol: FIGS. 17A-17D. BC-1215 reduces DSS induced colonic inflammation. FIGS. 17A-FIG. 17C. C57BL6 mice were fed with water containing 3.5% dextran sulfate sodium (DSS) for up to five days. Mice were treated with either vehicle or 100 ug of BC-1215 daily (via IP injection). Mice were then euthanized; the length of the colon was measured and graphed in (FIG. 17A). Colonic tissues were also analyzed for IL1β (FIG. 17B) and TNFα (FIG. 17C) by ELISA. (n=4 mice/group, *p<0.05 versus DSS) FIG. 17D, H&E staining was performed on colonic samples. (n=4 mice/group, *p<0.05 versus DSS)
FIGS. 24A-24E. […] A-D. C57BL6 mice were fed with water ad lib containing 3.5% dextran sulfate sodium (DSS) for up to five days. Mice were treated with either vehicle (control [CON]) or BC-1261 (150 μg) daily (via an i.p. injection), or BC-1261 were administered into drinking water at 30 μg/ml (po). Mice were then euthanized and the length of the colon was measured and graphed in (A-B). Colonic tissues were also analyzed for TNFα (C) and IL6(D). E. H&E staining was performed on colonic sections. The data represent n=4 mice/group, *P<0.05 versus DSS and **P<0.05 versus CON.
BC-1215 ameliorates DSS induced colitis. BC-1215 was also tested in a mouse colitis model to confirm its anti-inflammatory activity. Briefly, C57BL6 mice were fed with water containing 3.5% dextran sulfate sodium (DSS) for up to five days. Mice were treated with either vehicle or 200 ug of BC-1215 daily (via IP injection). Mice were then euthanized; the length of colons was measured. […] Colonic tissue cytokine levels were analyzed. […] Thus, the FBXO3 inhibitor BC-1215 suppresses inflammation in chemical induced colitis model in mice.

SMILES: c1ccc(-c2ccc(CNCCNCc3ccc(-c4ccccn4)cc3)cc2)nc1 [BC-1215]
- IL1β levels in colon tissues: remarkable reduction
- TNFα levels in colon tissues: remarkable reduction
- colon length: no significant decrease in colon length compared to control
- colonic tissue injury (H&E): significantly reduced
